The values below are quoted from earlier work in patent publication US20070015771A1, “Lonidamine analogs” (Threshold pharmaceuticals, Inc., priority 2004, published 2007).

One series relates to HIF-1-alpha. Conditions: cells cultured under hypoxia, cited from earlier work.
Series [1] concerns primary cultures of human prostate epithelial cells. Conditions: epithelial vs stromal cells; cited from earlier work.
Series [2] concerns cell lines derived from human prostate cells. Conditions: LNCaP vs PC3 cells; cited from earlier work.
Another series concerns advanced breast cancer. The note with it: 28 evaluable patients, daily divided oral dose of 600 mg; cited from earlier work.

Molecules are shown by their SMILES. Read-outs that look alike come from different tables or passages of the source.

For the molecule `O=C(O)c1nn(Cc2ccc(Cl)cc2Cl)c2ccccc12` [lonidamine, 1-(2,4-dichlorobenzyl)-1H-indazole-3-carboxylic acid], the “reduction of HIF-1-alpha expression/accumulation (nuclear fraction)” value in the series on HIF-1-alpha (200 micromolar) is “about 2 fold”. The “reduction of HIF-1-alpha expression/accumulation (nuclear fraction)” value with HIF-1-alpha (higher lonidamine concentrations) is reported as “more than 5 fold”. Also, in series [1], the “apoptosis in primary cultures of human prostate epithelial cells” value is given as “induces apoptosis”. Further, in series [2], the “apoptosis in cell lines derived from human prostate cells” value is “induces apoptosis”. Further, in the series with advanced breast cancer, the minor response was 11% and the partial response was 11%.
